Laboratory results taken from patent publication US5369114A, “Biphenylene branched alkyleneoxy quinolines” (Imperial Chemical Industries PLC, priority 1990, dated 1994).

Experiments:
[1] = molecular target: T1, AII receptors (cell surface membrane fraction, guinea pig adrenal gland) (Cavia porcellus, UniProt Q9WV26); test: Test A: displacement of radiolabelled AII binding from guinea pig adrenal membranes; conditions: in vitro, read-out: IC50 (concentration for 50% displacement of radiolabelled AII binding)
T1 construct: the source of cell surface membranes is the guinea pig adrenal gland; from tissue; host or cells: guinea pig adrenal gland, cell surface membrane fraction
T1 sequence (Q9WV26 1-359): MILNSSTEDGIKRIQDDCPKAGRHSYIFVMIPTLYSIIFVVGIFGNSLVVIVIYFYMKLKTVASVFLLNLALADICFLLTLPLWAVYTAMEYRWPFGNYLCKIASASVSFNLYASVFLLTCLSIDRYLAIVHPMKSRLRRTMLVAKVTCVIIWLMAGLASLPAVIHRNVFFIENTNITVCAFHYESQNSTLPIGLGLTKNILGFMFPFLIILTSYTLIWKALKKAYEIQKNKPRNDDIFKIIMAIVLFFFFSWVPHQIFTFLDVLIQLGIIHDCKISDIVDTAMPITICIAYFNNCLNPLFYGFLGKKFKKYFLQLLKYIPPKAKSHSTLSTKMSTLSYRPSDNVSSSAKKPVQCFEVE
Procedure: This in vitro procedure involves the incubation of the test compound initially at a concentration of 100 micromolar (or less) in a buffered mixture containing fixed concentrations of radiolabelled AII and a cell surface membrane fraction prepared from a suitable angiotensin target tissue. In this test, the source of cell surface membranes is the guinea pig adrenal gland which is well known to respond to AII. Interaction of the radiolabelled AII with its receptors (assessed as radiolabel bound to the particulate membrane fraction following removal of unbound radiolabel by a rapid filtration procedure such as is standard in such studies) is antagonized by compounds which also bind to the membrane receptor sites and the degree of antagonism (observed in the test as displacement of membrane-bound radioactivity) is determined readily by comparing the receptor-bound radioactivity in the presence of the test compound at the specified test concentration with a control value determined in the absence of the test compound. Using this procedure compounds showing at least 50% displacement of radiolabelled AII binding at a concentration of 10^-4 M are retested at lower concentrations to determine their potency. […]

[2] = tested on: angiotensin II-induced pressor responses; test: Test C: in vivo antagonism of angiotensin II-induced pressor responses in rats; conditions: iv, rat, i.v. administration
Procedure: This in vivo test involves using terminally-anaesthetised or conscious rats in which an arterial catheter has been implanted under anaesthesia for the measurement of changes in blood pressure. The AII antagonistic effects of the test compound following oral or parenteral administration, are assessed against angiotensin II-induced pressor responses. To ensure that the effect is specific, the effect of the test compound on vasopressin-induced pressor responses may also be determined in the same preparation.

IC50 [1]: 40 nM
SMILES: Cc1cc(OC(C)c2ccc(-c3ccccc3-c3nnn[nH]3)cc2)c2ccccc2n1.Cl (centres unmarked) [Example 1, 2-methyl-4-[1-(2'-(1H-tetrazol-5-yl)biphenyl-4-yl)ethoxy]quinoline hydrochloride]
ED50 [2]: 0.18 mg/kg
